# Measurements from patent publication US4781863A, “Aminocarnitines” (Cornell Research Foundation, Inc., priority 1987, dated 1988).
# Columns and labels:
# [1] = biological target: T1, carnitine acetyltransferase (Columba livia, UniProt P52826); assay: carnitine acetyltransferase inhibition assay (coupled CS/MDH, NADH at 340 mμ); type: biochemical
# T1 sequence (P52826 31-627): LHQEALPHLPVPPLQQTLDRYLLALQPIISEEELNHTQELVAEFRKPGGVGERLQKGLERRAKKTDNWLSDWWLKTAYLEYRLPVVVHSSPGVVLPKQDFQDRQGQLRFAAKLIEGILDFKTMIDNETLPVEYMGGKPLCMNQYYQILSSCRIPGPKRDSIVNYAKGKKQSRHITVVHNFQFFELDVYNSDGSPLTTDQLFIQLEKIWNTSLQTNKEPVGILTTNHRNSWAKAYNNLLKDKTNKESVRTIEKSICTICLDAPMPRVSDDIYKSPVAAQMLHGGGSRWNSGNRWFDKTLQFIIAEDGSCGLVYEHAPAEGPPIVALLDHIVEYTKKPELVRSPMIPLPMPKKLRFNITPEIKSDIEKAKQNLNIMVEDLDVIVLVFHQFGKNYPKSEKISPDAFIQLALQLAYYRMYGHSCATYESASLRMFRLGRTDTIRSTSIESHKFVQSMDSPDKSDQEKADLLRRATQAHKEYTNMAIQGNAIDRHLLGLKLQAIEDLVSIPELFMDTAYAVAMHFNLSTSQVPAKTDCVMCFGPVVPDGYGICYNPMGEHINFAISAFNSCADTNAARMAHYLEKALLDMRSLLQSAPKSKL
# Experimental: D,L-3-acetamido-4-trimethylaminobutyric acid.H2 O, referred to hereinafter as AAC, was assayed for inhibition of carnitine acetyltransferase.
# The procedure used is described in Fritz, I. B., Schultz, S. K., and Srere, P. A., "Properties of Partially Purified Carnitine Acetyltransferase", J. Biol. Chem., 238, 2509-2517 (1963).
# The assay was based on the following reactions wherein CAT is used to denote carnitine acetyltransferase, CS is used to denote citrate synthase, MDH is used to denote malate dehydrogenase, NAD is used to denote β-nicotinamide adenine dinucleotide (unreduced form) and NADH is used to denote β-nicotinamide adenine dinucleotide (reduced form):
# The assay is based on the fact that the velocity of reaction to produce acetyl-Coenzyme A is reduced to the extent that CAT is inhibited. Reactions (2) and (3) are a detection system for acetyl-Coenzyme A wherein acetyl-Coenzyme A, as it is produced, reacts with oxaloacetate thereby causing the MDH to catalyze production of oxaloacetate to replace that which is used and resulting in production of NADH which is detected using a spectrophotometer based on its property of absorbing light at 340 mμ. Thus, when CAT is bound and inhibited, the rate of NADH production is decreased and the rate of increase of absorbency at 340 mμ is decreased. The results are readily compiled in a Lineweaver-Burk plot of the reciprocal of reaction velocity versus the reciprocal of concentration of acetylcarnitine and the data can be analyzed to o provide Ki ' values as mentioned above.
# Sixteen runs were carried out. They consisted of a set of 4 runs where 1 mM of D,L-acetylcarnitine (pH 8.0) was included, a set of 4 runs where 2 mM of D,L-acetylcarnitine was included, a set of 4 runs where 5 mM of D,L-acetylcarnitine was included and a set of 4 runs where 10 mM of D,L-acetylcarnitine was included. In each set of runs, one run was conducted without AAC, one run was conducted with 0.1 mM AAC, one run was conducted with 0.5 mM AAC, and one run was conducted with 1.0 mM AAC.
# Each run was carried out utilizing a cuvette with 1 ml total being added to it. To each cuvette was added 0.7 ml of a premix of aqueous solutions of Tris-HCl buffer, NAD^+, dithiothreitol, and Tris D,L-malate, pH of 8.0 (concentrations in the premix were as follows: Tris-HCl, 143 mM; NAD^+, 0.71 mM; dithiothreitol, 4.3 mM; and Tris D,L-malate, 14.3 mM, the selected amount of D,L-acetylcarnitine as described above, 0.05 ml of a 4 mM aqueous solution of Coenzyme A, 0.025 ml of a 168 units/ml solution of CS, 0.025 ml of a 240 units/ml solution of MDH, the selected amount of AAC as described above, and water to 0.995 ml. The D,L-acetylcarnitine was added utilizing solution of concentration of 100 mM (in other words 0.010 ml for the first set of runs, 0.020 ml for the second set of runs, 0.050 ml for the third set of runs, 0.100 ml for the fourth set of runs). The AAC was added utilizing solution of concentration of 100 mM (in other words, additions for runs in each set were of 0 ml, 0.001 ml, 0.005 ml and 0.010 ml).
# After the above described reactants were added, each cuvette and its contents were incubated for 15 minutes at 30° C.
# Directly after the incubation period, 0.005 ml of CAT (concentration 5 units/ml) was added in each case.
# The reaction rate in each case was measured as described above as a function of change in absorbance at 340 mμ (providing a time course of NADH formation) and was expressed as mole NADH/min. (1 mM NADH =6.2×ΔA340).
# A Ki 'value for the D,L form of AAC was calculated to be 5×10^-5 M which is 10^-2 to 10^-3 times the Ki ' values found by Fritz and Schultz for the compounds they tested.
# [2] = system: carnitine palmitoyltransferase; assay: binding and inhibition of carnitine palmitoyltransferase; type: biochemical; conditions: no test described
# CAT = biological target: T2, CAT (Mus musculus, UniProt P47934); assay: carbon 14 CO2 output of mice given carbon 14 tagged acetylcarnitine; type: in vivo; conditions: 5 mmol/kg intraperitoneally, 0.5 mmol/kg carbon 14 acetylcarnitine subcutaneously, monitored 6 hours
# T2 construct: from tissue; host or cells: whole living mice (endogenous enzyme)
# T2 sequence (P47934 1-626): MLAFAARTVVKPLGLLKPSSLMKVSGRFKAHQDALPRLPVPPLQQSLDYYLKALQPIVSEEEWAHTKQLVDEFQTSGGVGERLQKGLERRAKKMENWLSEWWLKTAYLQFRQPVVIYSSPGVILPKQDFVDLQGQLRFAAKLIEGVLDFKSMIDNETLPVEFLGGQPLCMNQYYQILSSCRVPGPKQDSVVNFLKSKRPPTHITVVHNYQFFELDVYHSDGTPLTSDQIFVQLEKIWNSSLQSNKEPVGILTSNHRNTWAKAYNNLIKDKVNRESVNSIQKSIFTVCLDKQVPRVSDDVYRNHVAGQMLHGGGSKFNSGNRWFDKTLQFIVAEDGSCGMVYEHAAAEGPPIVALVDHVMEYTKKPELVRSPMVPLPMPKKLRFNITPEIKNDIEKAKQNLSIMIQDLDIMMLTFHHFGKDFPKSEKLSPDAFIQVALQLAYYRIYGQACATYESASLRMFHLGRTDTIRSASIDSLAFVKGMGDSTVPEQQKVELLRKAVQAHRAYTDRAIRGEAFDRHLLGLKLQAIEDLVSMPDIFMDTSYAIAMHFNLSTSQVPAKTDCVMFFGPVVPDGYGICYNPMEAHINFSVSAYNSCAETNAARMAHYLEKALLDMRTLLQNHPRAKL
# Experimental: (§1) Four mice were injected subcutaneously with 0.5 mmol/kg carbon 14 tagged acetylcarnitine. Two of them were injected intraperitoneally with 5 mmol/kg of AAC. The carbon 14 CO2 output of the mice was monitored every 15 minutes for 6 hours and for each mouse a graph was prepared with time on the X-axis and % of radiolabelled CO2 on the Y-axis. […] The amount of AAC administered was not toxic to the mice.
# [3] = toxicity of administered amount in mice; type: in vivo; conditions: 5 mmol/kg intraperitoneally
# Experimental: as §1
# [4] = cited from earlier work
smiles,measurement,setting,value
"C[N+](C)(C)CC(CC(=O)[O-])NC(=O)CBr (racemic) [D,L-3-bromoacetamido-4-trimethylaminobutyricacid.H2 O]",reversibility of binding action,[1],irreversible
same,inhibition of CAT,[1]; no test described,inhibits CAT similarly to AAC
"CCCCCCCCCCCCCCCC(=O)NC(CC(=O)[O-])C[N+](C)(C)C (racemic) [PAC, D,L-3-palmitoamido-4-trimethylaminobutyric acid.H2 O]",binding and inhibition of carnitine palmitoyltransferase,[2],readily binds to and inhibits carnitine palmitoyltransferase
"CC(=O)NC(CC(=O)[O-])C[N+](C)(C)C (racemic) [AAC, D,L-3-acetamido-4-trimethylaminobutyric acid.H2 O]",rate of radiolabelled CO2 output,CAT,retarded rate of radiolabelled CO2 output
same,Ki' relative to the Ki' values found by Fritz and Schultz for the compounds they tested,[1],10^-2 to 10^-3 times
same,reversibility of binding action,[1],reversible by dilution
same,Ki,"[1]; D,L form, Lineweaver-Burk plot, 1-10 mM D,L-acetylcarnitine, pH 8.0, 30° C",50 µM
same,mode of inhibition of CAT,"[1]; Lineweaver-Burk plot, same site as acetyl carnitine",competitive inhibitor
same,inhibition at 100 µM,"[1]; at a concentration of 0.1 mM, read-out: inhibition of formation of acetyl-Coenzyme A",34%
same,inhibition at 500 µM,"[1]; at a concentration of 0.5 mM, read-out: inhibition of formation of acetyl-Coenzyme A",67%
same,inhibition at 1000 µM,"[1]; at a concentration of 1 mM, read-out: inhibition of formation of acetyl-Coenzyme A",81%
same,binding to CAT relative to acetylcarnitine (times more tightly),[1]; from Lineweaver-Burk plot,18 times
same,toxicity of the amount administered,[3],not toxic
C[N+](C)(C)CC(CC(=O)[O-])OC(=O)CBr [Bromoacetyl-L-carnitine],toxicity in vivo,[4],toxicity due to release of bromine and/or bromoacetate
